Source: patent US20060058392A1, “Use of a rhein in a therapeutic treatment requiring a rise in the rate of heme oxygenase” (priority 2002, published 2006)

Assays:
[1] = system: TO mice implanted with rat tissue; test: Induced granuloma and tissue degradation of rat tissue implanted subcutaneously in mice; format: in vivo, mouse; settings: for integrity of the implanted/grafted tissue / tissular reaction (granuloma, inflammatory cells, exudate) caused by the transplant of rat tissue to the mouse: overall statement
Protocol: The effect of diacerein, rhein and their salts or esters on the intensity of the tissular reaction and the destruction and rejection phenomena was assessed following a tissue implantation, using the model of induced granuloma and tissue degradation of rat tissue in mice (Bottomley K M and al., Osteoarthritis and Cartilage (1998) 6: 19-23.).
The method comprises the following steps: • The isolated tissue (Wistar rat, male) are placed in sterile cotton and implanted subcutaneously in TO mice; • the subcutaneous implants are kept for a period of 2 weeks; • daily treatment of the animals with diacerein, rhein, their salts or esters, as well as with the controls and comparatives, at the optimum doses indicated; • collection of the implanted tissue and of the reactive granuloma; • measurement of the degree of tissular inflammatory response (assessment of the dimensions of the granuloma, of the number of inflammatory cells in the exudate and of the volume of the exudate), and of the rejection (assessment of the degradation of the implanted tissue).

[2] = system: patients presenting with osteoarthritis; settings: cited from earlier work; for antalgic and anti-inflammatory symptomatic activity: acute phase of osteoarthritis, Nguyen et al. 1994
[3] = cited from earlier work
human chondrocytes = test: Human chondrocyte culture treated with erythrocyte lysate (cellular viability, apoptosis); format: cell-based; settings: lysate of 3×10^6 erythrocytes, 100 μM
Protocol: The whole cellular culture was measured by its cellular viability (live cells compared to the control), the presence of apoptosis (nuclear fragmentation; in number and percentage compared to the control), and the incorporation of radioactive sulphate (^35SO4; in coups per minutes, CPM).
As was already observed with the femoral head cartilage, the erythrocytes, erythrocyte lysate and haemoglobin also cause cellular destruction in this model. However, stress-induced HSPs prevent this cellular destruction and preserve the cells, as shown on FIG. 6 which counts the live cells (model: human chondrocytes under thermal stress (1 h at 43° C.) and treated with erythrocyte lysate (3×10^6); sem=standard error).

heme oxygenase-1 (HO-1) [4] = test: Western blot of HO-1 expression in rat femoral head cartilage culture; format: cell-based; settings: diacerein 10 μM and 100 μM, compared to control and reference solution, FIG. 7a
heme oxygenase-1 (HO-1) [5] = test: Western blot of HO-1 expression in mice macrophages; format: cell-based; settings: 10^−5 M, analysed at 15, 30, 60 min (diacerein, FIG. 7b) or 0-120 min and 18 h (rhein, FIG. 7c)
Protocol: FIGS. 7b and 7c are also <<Western blots >> of cells (model: mice macrophages) cultivated with and without diacerein (FIG. 7b: columns “Dε” and “Cε” respectively) or rhein (FIG. 7c) at a concentration of 10^−5 M, and later analysed at 15, 30 and 60 minutes (FIG. 7b) and at 0, 15, 30, 60, 120 minutes as well as 18 hours (FIG. 7c). The identity of the protein of interest, HO-1, was confirmed as regards its molecular mass (first column on the left in the Figures).

Compound: CC(=O)Oc1cccc2c1C(=O)c1c(OC(C)=O)cc(C(=O)O)cc1C2=O [diacerein]
- tissular reaction (formation of the reactive granuloma) ([1]; 5, 15 and 50 mg/kg per oral route, daily, 2 weeks, p<0.01 vs control, FIG. 10): dose-dependent reduction
- integrity of the grafted tissue: content in collagen ([1]; 5, 15 and 50 mg/kg per oral route, p<0.05 / p<0.01 vs control, FIG. 12 left): preserves the integrity of the grafted tissue
- integrity of the grafted tissue: content in glycosamino-glycan (GAG) ([1]; 5, 15 and 50 mg/kg per oral route, p<0.05 / p<0.01 vs control, FIG. 12 right): preserves the integrity of the grafted tissue
- tissular reaction: number of inflammatory cells ([1]; 5, 15 and 50 mg/kg per oral route, p<0.05 vs control, FIG. 11 left): reduced in a dose-dependent manner
- tissular reaction: volume of the exudate ([1]; 5, 15 and 50 mg/kg per oral route, p<0.05 vs control, FIG. 11 right): reduced in a dose-dependent manner
- integrity of the implanted/grafted tissue [1]: preserve the integrity of the implanted tissue
- tissular reaction (granuloma, inflammatory cells, exudate) caused by the transplant of rat tissue to the mouse [1]: reduce the tissular reaction
- antalgic and anti-inflammatory symptomatic activity [2]: moderate
- progression of osteoarthritis ([2]; patients with osteoarthritis): slows down the progression of osteoarthritis
- safety of use ([2]; patients with osteoarthritis): good safety of use
- solubility in alcohols [3]: very slightly soluble
- solubility in water [3]: very slightly soluble
- cellular destruction caused by the erythrocyte lysate (live cells) (human chondrocytes; FIG. 8): prevents the cellular destruction
- expression of HO-1 (heme oxygenase-1 (HO-1) [4]): dose-dependent increase
- expression of HO-1 (heme oxygenase-1 (HO-1) [5]): time-dependant increase

Compound: O=C(O)c1cc(O)c2c(c1)C(=O)c1cccc(O)c1C2=O [rhein]
- integrity of the implanted/grafted tissue [1]: preserve the integrity of the implanted tissue
- tissular reaction (granuloma, inflammatory cells, exudate) caused by the transplant of rat tissue to the mouse [1]: reduce the tissular reaction
- antalgic and anti-inflammatory symptomatic activity [2]: moderate
- solubility in alcohols [3]: very slightly soluble
- solubility in water [3]: very slightly soluble
- apoptosis caused by the erythrocyte lysate (human chondrocytes; FIG. 9): prevents the apoptosis
- expression of HO-1 (heme oxygenase-1 (HO-1) [5]): time-dependant increase
